Source: the NIST ThermoML archive (doi:10.1021/je034142v)
“And” between values parts separate entries of the source, which are not always exact repeats. Identical values can stand only once.

Settings: Liquid; for mass density: vibrating tube

C1CCCC1 [cyclopentane]
Settings	mass density [kg/m3]	viscosity
273.15 K, 325900 kPa	–	3.56 mPa·s
273.15 K, 350700 kPa	–	3.947 mPa·s
273.15 K, 379200 kPa	–	4.44 mPa·s
278.15 K, 101.33 kPa	759.64	–
278.16 K, 100 kPa	–	0.5288 mPa·s and 0.529 mPa·s
278.16 K, 2900 kPa	–	0.543 mPa·s
278.16 K, 5000 kPa	–	0.5539 mPa·s
278.16 K, 8100 kPa	–	0.5697 mPa·s
278.16 K, 10800 kPa	–	0.5838 mPa·s
278.16 K, 25900 kPa	–	0.6618 mPa·s
278.16 K, 50800 kPa	–	0.7981 mPa·s
278.16 K, 75800 kPa	–	0.9456 mPa·s
278.16 K, 100600 kPa	–	1.105 mPa·s
278.16 K, 125700 kPa	–	1.28 mPa·s
278.16 K, 150700 kPa	–	1.469 mPa·s
278.16 K, 175800 kPa	–	1.675 mPa·s
278.16 K, 200700 kPa	–	1.895 mPa·s
278.16 K, 225800 kPa	–	2.137 mPa·s
278.16 K, 250800 kPa	–	2.395 mPa·s
278.16 K, 275900 kPa	–	2.679 mPa·s
278.16 K, 300800 kPa	–	2.992 mPa·s
278.16 K, 325900 kPa	–	3.323 mPa·s
278.16 K, 350900 kPa	–	3.683 mPa·s
278.16 K, 380100 kPa	–	4.144 mPa·s
283.15 K, 101.33 kPa	754.76	–
287.93 K, 100 kPa	–	0.471 mPa·s and 0.4712 mPa·s
287.93 K, 3000 kPa	–	0.4845 mPa·s
287.93 K, 5400 kPa	–	0.4955 mPa·s
287.93 K, 8100 kPa	–	0.5084 mPa·s
287.93 K, 10800 kPa	–	0.5216 mPa·s
287.93 K, 25900 kPa	–	0.5923 mPa·s
287.93 K, 50900 kPa	–	0.7153 mPa·s
287.93 K, 75800 kPa	–	0.8468 mPa·s
287.93 K, 100800 kPa	–	0.9885 mPa·s
287.93 K, 125700 kPa	–	1.143 mPa·s
287.93 K, 150600 kPa	–	1.308 mPa·s
287.93 K, 175700 kPa	–	1.488 mPa·s
287.93 K, 200600 kPa	–	1.681 mPa·s
287.93 K, 225700 kPa	–	1.893 mPa·s
287.93 K, 250700 kPa	–	2.121 mPa·s
287.93 K, 275700 kPa	–	2.361 mPa·s
287.93 K, 300800 kPa	–	2.623 mPa·s
287.93 K, 325500 kPa	–	2.901 mPa·s
287.93 K, 349500 kPa	–	3.196 mPa·s
287.93 K, 376900 kPa	–	3.563 mPa·s
288.15 K, 101.33 kPa	749.85	–
293.15 K, 101.33 kPa	744.9	–
298 K, 100 kPa	–	0.4191 mPa·s and 0.4196 mPa·s
298 K, 3000 kPa	–	0.4308 mPa·s
298 K, 5300 kPa	–	0.4404 mPa·s
298 K, 8100 kPa	–	0.4526 mPa·s
298 K, 10900 kPa	–	0.4644 mPa·s
298 K, 26000 kPa	–	0.5288 mPa·s
298 K, 50800 kPa	–	0.639 mPa·s
298 K, 75800 kPa	–	0.7572 mPa·s
298 K, 100800 kPa	–	0.8842 mPa·s
298 K, 125800 kPa	–	1.021 mPa·s
298 K, 150700 kPa	–	1.167 mPa·s
298 K, 175700 kPa	–	1.324 mPa·s
298 K, 200700 kPa	–	1.495 mPa·s
298 K, 225700 kPa	–	1.678 mPa·s
298 K, 250700 kPa	–	1.874 mPa·s
298 K, 275700 kPa	–	2.085 mPa·s
298 K, 300600 kPa	–	2.311 mPa·s
298 K, 324900 kPa	–	2.542 mPa·s
298 K, 349600 kPa	–	2.793 mPa·s
298 K, 375700 kPa	–	3.084 mPa·s
298.03 K, 100 kPa	–	0.419 mPa·s
298.03 K, 5500 kPa	–	0.441 mPa·s
298.03 K, 7800 kPa	–	0.4505 mPa·s
298.03 K, 10800 kPa	–	0.4637 mPa·s
298.03 K, 25900 kPa	–	0.5276 mPa·s
298.03 K, 50900 kPa	–	0.6379 mPa·s
298.03 K, 75800 kPa	–	0.7549 mPa·s
298.03 K, 100800 kPa	–	0.8807 mPa·s
298.03 K, 125800 kPa	–	1.016 mPa·s
298.03 K, 150700 kPa	–	1.163 mPa·s
298.03 K, 175700 kPa	–	1.322 mPa·s
298.03 K, 200700 kPa	–	1.491 mPa·s
298.03 K, 225600 kPa	–	1.673 mPa·s
298.03 K, 250600 kPa	–	1.871 mPa·s
298.03 K, 275600 kPa	–	2.081 mPa·s
298.03 K, 300400 kPa	–	2.305 mPa·s
298.03 K, 325300 kPa	–	2.545 mPa·s
298.03 K, 350100 kPa	–	2.8 mPa·s
298.03 K, 378000 kPa	–	3.112 mPa·s
298.15 K, 101.33 kPa	739.92	–

101.33 kPa, Capillary tube (Ostwald / Ubbelohde) method
Settings	viscosity [mPa·s]
278.15 K	0.523
283.15 K	0.4932
288.15 K	0.4657
293.15 K	0.4405
298.15 K	0.4173
